“And” between values parts separate entries of the source, which are not always exact repeats. Equal entries are not always repeated.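 Compound exposure: 48 hours, 5 concentrations, 96-well plates. GI50 is the concentration that inhibits growth by half. Definition used: TGI = concentration required for complete inhibition of growth.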
Legend:
Experiment in all cases: NCI tumour cell line growth inhibition, 48 h
SF-268 CNS = system: SF-268 CNS
COLO 205 colon = system: COLO 205 colon
MOLT-4 leukemia = system: MOLT-4 leukemia
OVCAR-4 ovarian = system: OVCAR-4 ovarian
786-0 renal = system: 786-0 renal
SK-OV-3 ovarian = system: SK-OV-3 ovarian
RPMI-8226 leukemia = system: RPMI-8226 leukemia
HT29 colon = system: HT29 colon
IGROV1 ovarian = system: IGROV1 ovarian
OVCAR-5 ovarian = system: OVCAR-5 ovarian

SMILES | GI50 (SF-268 CNS) [µM] | TGI (SF-268 CNS) | GI50 (COLO 205 colon) [µM] | TGI (COLO 205 colon) | GI50 (MOLT-4 leukemia) [µM] | TGI (MOLT-4 leukemia) [µM] | GI50 (OVCAR-4 ovarian) | TGI (OVCAR-4 ovarian) | GI50 (786-0 renal) [µM] | TGI (786-0 renal) [µM] | GI50 (SK-OV-3 ovarian) [µM] | TGI (SK-OV-3 ovarian) | GI50 (RPMI-8226 leukemia) [µM] | TGI (RPMI-8226 leukemia) [µM] | GI50 (HT29 colon) [µM] | TGI (HT29 colon) | GI50 (IGROV1 ovarian) [µM] | TGI (IGROV1 ovarian) | TGI (OVCAR-5 ovarian) | GI50 (OVCAR-5 ovarian)
CCOC(=O)c1c2c(n(Cc3ccc(Cl)cc3Cl)c1C)-c1nc[nH]c1C(=O)C2=O | 7.89 | 20.4 µM | 17.4 | 32.1 µM | 1.8 | 3.97 | 6.58 µM | 19.3 µM | 3.37 | 11.3 | 19.9 | 34.2 µM | 2.5 | 6.03 | 15.5 | 28.8 µM | 11.2 | 24 µM | – | –
OCC1C(/C=C/c2ccoc2)ON2CCCC12 (stereo unspecified) | – | > 100 µM | – | > 100 µM | – | – | – | > 100 µM | – | > 100 | – | – | – | – | – | > 100 µM | – | – | > 100 µM | –
Cc1cc(C(=C2C=CC(=Nc3ccccc3)C=C2)c2ccc(Nc3ccccc3)cc2)ccc1N | 0.651 | 1.83 µM | 0.201 | 0.407 µM | – | – | 0.355 µM | 1.31 µM | 0.259 | 0.709 | 1.52 | 2.9 µM | – | – | 0.164 | 0.302 µM | 0.389 | 1.34 µM | 0.671 µM | 0.245 µM
O=C(Cn1c(=O)c(-c2ccccc2)nc2ccccc21)Nc1ccc(F)cc1 | > 100 | > 100 µM | > 100 | > 100 µM | – | – | 47.3 µM | > 100 µM | 75.2 | > 100 | 64.8 | > 100 µM | 37.4 | > 100 | > 100 | > 100 µM | 89.6 | > 100 µM | > 100 µM | > 100 µM
CC(C)CCCC(C)[C@H]1CCC2[C@@H]3CCC4Nc5nocc5C[C@]4(C)C3CC[C@@]21C (stereo partly specified) | – | 36.8 µM | – | 20.4 µM | – | 46.5 | – | 39.3 µM | – | 25.9 | – | 34.8 µM | – | 69.3 | – | 37.1 µM | – | 57 µM | – | –
O=C(O/C(=C(/N=Nc1ccccc1)c1ccccc1)c1ccccc1)c1ccccc1 | – | – | – | – | – | > 100 | – | > 100 µM | – | > 100 | – | > 100 µM | – | > 100 | – | > 100 µM | – | > 100 µM | > 100 µM | –
CCOC1=C2C(=O)OC(=O)C2C2CCCCC2=C1 (stereo unspecified) | – | > 100 µM | – | > 100 µM | – | > 100 | – | > 100 µM | – | > 100 | – | > 100 µM | – | > 100 | – | > 100 µM | – | > 100 µM | – | –
COc1cc2ccccc2oc1=O | – | > 100 µM | – | > 100 µM | – | > 100 | – | > 100 µM | – | > 100 | – | – | – | > 100 | – | > 100 µM | – | > 100 µM | > 100 µM | –
C#CC1(O)C(COP(=O)(O)OC(COCCCCCCCCCCCCCCCCCC)COP(=O)(O)OCC2OC(n3cc(F)c(=O)[nH]c3=O)CC2O)OC(n2ccc(N)nc2=O)C1O (stereo unspecified) | – | 15.9 µM and 15.1 µM | – | 1.99 µM and 6.07 µM | – | > 100 | 3.05 µM and 1.5 µM | 31.4 µM and 23.4 µM | 0.547 | > 100 | – | 16.2 µM and > 100 µM | – | – | – | > 100 µM and 41.5 µM | 0.135 | 2.59 µM and 4.59 µM | > 46.2 µM and 68.6 µM | 1.04 µM and 2.99 µM
O=c1oc(Cl)c(Cl)c2ccccc12 | 38.2 | > 100 µM | 22.8 | 63.7 µM | 9.19 | 78.2 | 30 µM | > 100 µM | 19.2 | 40.4 | 59.8 | > 100 µM | – | – | 34.9 | > 100 µM | 23.2 | 63.2 µM | 57.1 µM | 18.7 µM
COc1ccc(-c2nc(/C=N/Nc3cc(C)nc4ccc(Cl)cc34)c(C)o2)cc1 | – | – | 1.63 | 3.18 µM | – | – | 1.53 µM | 2.9 µM | 1.56 | 2.98 | 1.65 | 3.06 µM | – | – | – | – | 1.76 | 3.36 µM | 3.07 µM | 1.68 µM
C[C@]12CCC(=O)C=C1CC[C@@H]1C2CC[C@]2(C)Nc3c(cnn3-c3ccccc3)CC12 (stereo partly specified) | – | – | – | – | – | > 100 | – | > 100 µM | – | > 100 | – | > 100 µM | – | > 100 | – | > 100 µM | – | > 100 µM | > 100 µM | –
COC1OC(CBr)C(OC(=O)c2ccccc2)C(O)C1Br (stereo unspecified) | – | > 100 µM | – | > 100 µM | – | > 100 | – | > 100 µM | – | > 100 | – | – | – | > 100 | – | > 100 µM | – | > 10 µM | > 100 µM | –
O=C1C2C3C=C4c5ccccc5N(c5ccccc5)C4(C2C(=O)N1c1ccc(Cl)cc1)[C@H]1C(=O)N(c2ccc(Cl)cc2)C(=O)[C@@H]31 (stereo partly specified) | – | – | – | > 100 µM | – | > 100 | – | > 100 µM | – | > 100 | – | > 100 µM | – | > 100 | – | > 100 µM | – | > 100 µM | > 100 µM | –
CCC1CN2C(=N1)c1ccccc1-c1cc(Cl)ccc12 (stereo unspecified) | 2.96 | 11.6 µM | 3.21 | 12.6 µM | 2.51 | 7.16 | 3.97 µM | 28.6 µM | 3.32 | 13 | 4.27 | 24.6 µM | – | – | 2.01 | 7.11 µM | 2.29 | 15.1 µM | 29.6 µM | 4.48 µM
Cc1ccc(SSc2ccc(C)cc2C(=O)O)c(C(=O)O)c1 | – | > 100 µM | – | > 100 µM | – | > 100 | – | > 100 µM | – | > 100 | – | > 100 µM | – | – | – | > 100 µM | – | – | > 100 µM | –
CCn1cc(C(=O)N/N=C/c2ccccc2)c(=O)c2cc(F)c(N3CCNC(C)C3)c(F)c21 (stereo unspecified) | 1.96 | 3.62 µM | – | – | – | – | 2.04 µM | 3.62 µM | 1.68 | 3.25 | 1.81 | 3.25 µM | – | – | – | – | 1.71 | 3.2 µM | 3.05 µM | 1.64 µM
Cc1cc(NCCCCCCNc2cc(C)nc3cc(N(C)C)ccc23)c2ccc(N(C)C)cc2n1 | – | > 100 µM | – | – | – | > 100 | – | > 100 µM | – | > 100 | – | 25 µM | – | – | – | > 100 µM | – | – | > 100 µM | –
c1ccc(C(c2ccccc2)c2cccnc2)cc1 | – | > 100 µM | – | > 100 µM | – | – | – | > 100 µM | – | > 100 | – | > 100 µM | – | > 100 | – | > 100 µM | – | > 100 µM | > 100 µM | –

Reference: PubChem BioAssay (NCI)
